# Reference: patent US20080227819A1, “Method for identifying the agonistic activity of a target compound on a potassium channel” (Gruenenthal GmbH, priority 2007, published 2008)
# What was measured:
# Format in all cases: cell-based
# [1] = target: T1, KCNQ2 channels and KCNQ3 channels (Homo sapiens, UniProt O43525+O43526); experiment: depolarisation assay format, voltage-sensitive fluorescent dye, CHO cells expressing KCNQ channels; details: saturating concentration of XE991 (60 μM), ΔF/F, control cells subtracted, FIG. 1
# T1 construct: expressed in transfected cells; host or cells: CHO cells (Chinese hamster ovary cells)
# T1 sequence (O43525 whole entry): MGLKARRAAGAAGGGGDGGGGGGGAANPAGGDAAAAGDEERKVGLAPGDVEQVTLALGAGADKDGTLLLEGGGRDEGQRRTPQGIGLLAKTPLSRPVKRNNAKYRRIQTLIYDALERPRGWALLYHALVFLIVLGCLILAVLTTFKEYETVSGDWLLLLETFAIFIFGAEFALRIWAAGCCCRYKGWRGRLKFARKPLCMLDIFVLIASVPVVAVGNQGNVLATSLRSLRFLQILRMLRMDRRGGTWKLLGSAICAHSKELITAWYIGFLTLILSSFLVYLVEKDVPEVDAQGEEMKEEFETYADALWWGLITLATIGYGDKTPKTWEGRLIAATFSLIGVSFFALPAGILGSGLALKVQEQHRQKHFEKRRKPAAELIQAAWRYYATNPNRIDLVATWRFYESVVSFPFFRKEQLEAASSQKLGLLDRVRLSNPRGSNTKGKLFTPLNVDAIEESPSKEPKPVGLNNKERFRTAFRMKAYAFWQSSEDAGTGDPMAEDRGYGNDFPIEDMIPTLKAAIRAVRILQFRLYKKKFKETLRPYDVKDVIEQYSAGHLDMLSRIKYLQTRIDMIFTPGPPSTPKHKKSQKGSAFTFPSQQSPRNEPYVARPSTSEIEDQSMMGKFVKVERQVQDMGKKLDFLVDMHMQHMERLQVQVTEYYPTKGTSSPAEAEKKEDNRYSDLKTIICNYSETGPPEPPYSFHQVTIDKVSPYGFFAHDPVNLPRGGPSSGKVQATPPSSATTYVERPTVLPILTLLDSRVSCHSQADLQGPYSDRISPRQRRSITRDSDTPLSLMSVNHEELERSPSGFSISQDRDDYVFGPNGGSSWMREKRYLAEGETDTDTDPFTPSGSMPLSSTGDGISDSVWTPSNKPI
# T1 sequence (O43526 whole entry): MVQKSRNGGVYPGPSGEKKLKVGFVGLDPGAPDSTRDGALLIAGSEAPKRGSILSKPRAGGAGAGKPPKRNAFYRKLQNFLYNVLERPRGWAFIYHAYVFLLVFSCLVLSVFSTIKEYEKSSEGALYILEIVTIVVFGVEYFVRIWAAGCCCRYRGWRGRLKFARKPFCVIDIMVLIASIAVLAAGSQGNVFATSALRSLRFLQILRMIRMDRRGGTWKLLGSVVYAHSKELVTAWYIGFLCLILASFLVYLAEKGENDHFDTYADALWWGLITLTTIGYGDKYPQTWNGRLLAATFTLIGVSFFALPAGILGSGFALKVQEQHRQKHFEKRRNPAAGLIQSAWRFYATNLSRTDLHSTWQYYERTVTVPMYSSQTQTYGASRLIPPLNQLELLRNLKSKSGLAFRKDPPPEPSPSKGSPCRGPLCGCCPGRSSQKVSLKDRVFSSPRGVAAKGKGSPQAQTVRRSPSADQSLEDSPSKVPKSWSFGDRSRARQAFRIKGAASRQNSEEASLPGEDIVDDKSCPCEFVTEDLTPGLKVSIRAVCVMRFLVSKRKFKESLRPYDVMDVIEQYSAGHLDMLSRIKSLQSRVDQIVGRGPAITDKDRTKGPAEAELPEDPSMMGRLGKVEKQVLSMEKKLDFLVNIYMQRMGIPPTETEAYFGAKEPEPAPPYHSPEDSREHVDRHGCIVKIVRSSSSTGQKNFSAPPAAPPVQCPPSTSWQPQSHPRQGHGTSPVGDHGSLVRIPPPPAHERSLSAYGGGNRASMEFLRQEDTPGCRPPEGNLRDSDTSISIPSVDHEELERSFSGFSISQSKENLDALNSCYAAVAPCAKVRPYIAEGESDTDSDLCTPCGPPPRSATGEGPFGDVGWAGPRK
# Method: FIG. 1: Effect of XE991 on the membrane potential of cells expressing KCNQ channels in a depolarisation assay format. The time response of the fluorescence intensity of CHO cells expressing KCNQ channels before and after the application (arrow) of a known KCNQ channel blocker (XE991, 60 μM) is depicted.
# CHO cells (Chinese hamster ovary cells) expressing KCNQ2 channels and KCNQ3 channels were adherently cultivated in a nutrient medium [Minimum Essential Medium (MEM), α medium 22571 1×liquid (Invitrogen), 10% Fetal Calf Serum (FCS) (Gibco, heat inactivated), including selection antibiotics] at 37° C., 5% CO2 and 95% air humidity in cell culture bottles. […] After incubation with the dye, either 50 μl ES (control) or 50 μl of the KCNQ channel blocker XE991 in independent wells in a saturating concentration (final concentration 60 μM) were added and incubated for […] with concurrent monitoring of the fluorescence in the reader. The measurements were carried out by a Fluostar or Polarstar fluorescence reader of the company BMG or the FlexStation of the company Molecular Devices. It was excited at a wavelength of 525 nm and detected at a wavelength of 560 nm.
# In FIG. 1 the time response of the fluorescence intensity of CHO cells expressing KCNQ channels before and after the application (arrow) of a known KCNQ channel blocker (XE991) is depicted. […]
# [2] = target: T1, KCNQ2 channels and KCNQ3 channels; experiment: ion jump assay format for searching for potassium channel blockers (potassium injection to extracellular medium); details: KCl final concentration 91.8 mM, FIG. 3
# Method: FIG. 3: Influence of XE991 on the fluorescence response after potassium injection to the extracellular medium in a ion jump assay format for searching for potassium channel blockers. The time response of the fluorescence intensity of CHO cells expressing the KCNQ channels before and after the application (arrow) of […] potassium chloride is depicted.
# The seeding of KCNQ-expressing cells in assay plates, the loading with the dye and the measurement devices to be used as well as the wavelengths to be set are in accordance with Example 1. […] Then the base line was monitored in the fluorescence reader for 3-4 min and the fluorescence values were measured for 10 min after the injection of 15 μl of a KCl solution (final concentration 91.8 mM) in each cavity of the plate.
# In FIG. 3 the time response of the fluorescence intensity of CHO cells expressing the KCNQ channels before and after the application (arrow) of 91.8 mM potassium chloride is depicted. The fluorescence responses of the cells in the absence (Δ) and presence (▪) of the known KCNQ channel blocker XE991 (60 μM) are shown. The percental change in the fluorescence intensity (ΔF/F) based on the averaged fluorescence intensity before the potassium application is depicted.
# [3] = target: T1, KCNQ2 channels and KCNQ3 channels; experiment: hyperpolarisation assay format, voltage-sensitive fluorescent dye, CHO cells expressing KCNQ channels; details: retigabine 30 μM, ΔF/F, control cells subtracted, FIG. 2
# Method: FIG. 2: Effect of retigabine on the membrane potential of cells expressing KCNQ channels in a hyperpolarisation assay format. The time response of the fluorescence intensity in CHO cells expressing KCNQ channels before and after the application (arrow) of a known KCNQ channel opener (retigabine, 30 μM) is depicted.
# The cells were seeded into assay plates and loaded with the dye in exactly the same way as described in Example 1. The measurements were carried out by a Fluostar or Polarstar fluorescence reader of the company BMG or the FlexStation of the company Molecular Devices. It was excited at a wavelength of 525 nm and detected at a wavelength of 560 nm. After incubation with the dye, the base line was monitored for 5 min. Then either 50 up ES buffer (control) or 50 μl of the KCNQ agonist retigabine (30 μM) were added and the fluorescence was monitored in an appropriate reader for 7.5 min.
# In FIG. 2 the time response of the fluorescence intensity of CHO cells expressing KCNQ channels before and after the application (arrow) of the known KCNQ channel opener (retigabine, 30 μM) is depicted. The percental change in the fluorescence intensity (ΔF/F) based on the averaged fluorescence intensity before the application of retigabine is depicted. The course of the fluorescence of the control cells (application of buffer) was subtracted from the retigabine-induced fluorescence signal.
SMILES,increase in the fluorescence intensity after application of the KCNQ channel blocker [1],difference of the amplitudes of the fluorescence responses in the presence and in the absence of a KCNQ channel blocker (dynamic range of the assay) ([2]; XE991 60 μM vs control cells),"fluorescence response after the potassium application in the presence of the blocker ([2]; saturating concentration of XE991 (60 μM), 30 min, control cells show increase by about 80%)",decrease in the fluorescence intensity after application of retigabine [3]
O=C1c2ccccc2C(Cc2ccncc2)(Cc2ccncc2)c2ccccc21 [XE991],about 55%,about 80%,no increase in the fluorescence,–
CCOC(=O)Nc1ccc(NCc2ccc(F)cc2)cc1N [retigabine],–,–,–,35-40%
